Our source for the RP-LC retention time values is the METLIN SMRT retention time set (Domingo-Almenara et al. 2019).

A short description of the data set: gradient 5% acetonitrile 3 min, to 50% in 2 min, to 85% in 15 min, held 3 min, 100 µL/min. The settings on record: column: Zorbax Extend-C18 2.1 x 50 mm; eluents: water / acetonitrile, 0.1% formic acid. The method, boiled down:
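In both positive and negative ionization mode, a quadrupole time-of-flight mass spectrometer coupled to HPLC analyzed pure standards run in mixtures of ~100 molecules. The Zorbax Extend-C18 column (2.1 × 50 mm, 1.8 μm) was operated at 100 μL/min with water and acetonitrile, each containing 0.1% formic acid. The dead volume was 40 μL and the dwell volume 900 μL. Retention time came from adduct peaks that were computationally picked and individually inspected by hand.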
In turn, `COc1ccc(OC)c(NC(=O)CN2C(=O)CC(c3ccc(Cl)cc3)=Nc3cccnc32)c1` came in with an RP-LC retention time of 1040 s.

In turn, `COc1ccc(-n2c(=O)n(C)c(=O)c3cc(C(=O)Nc4cccc(Cl)c4)cnc32)cc1` displayed an RP-LC retention time of 1010 s.

For `O=C(O)c1ccc2c(ccn2Cc2ccccc2)c1`, the RP-LC retention time is 843 s.

Take `Cc1ccc(NC(=O)N2CCC(c3nc(C(=O)N(C)C)c(C)o3)CC2)cc1`: the RP-LC retention time amounted to 705 s.

As for `CCN(CC)C(=O)c1ccc(-c2nc3cc(NS(=O)(=O)c4ccc(F)cc4)ccc3n2C)cc1`, the RP-LC retention time came out at 699 s.

`CCOC(=O)C1CCN(C(=O)C2CCCN(c3cnc4nccnc4c3)C2)CC1` (centres undefined) registered an RP-LC retention time of 686 s.

For `Cc1cc2nn(CC(=O)Nc3ccc(Cl)cc3)c(=O)n2c(N2CCCC2)n1`, the RP-LC retention time worked out at 802 s.

For the compound `O=C(Cn1nc2c3cc(-c4ccc(F)cc4)nn3ccn2c1=O)Nc1ccc(Br)cc1F`, the RP-LC retention time came to 989 s.

Consider `COc1ccc(NC(=O)c2cc3c(=O)n(CC(C)C)ccc3n2C)cc1Cl`, for which the RP-LC retention time was 895 s.

Consider `CCSc1ccccc1C(=O)NCC1CCN(S(=O)(=O)C2CC2)CC1`, for which the RP-LC retention time was determined as 725 s.

The compound `CCCn1nnc2cc(-c3noc(C4CC(=O)N(c5cccc(Cl)c5)C4)n3)ccc21` (centres undefined) returned an RP-LC retention time of 994 s.

`COc1cccc(CNC(=O)c2ccc3c(c2)N(C)C(=O)C2CCCCN32)c1` (centres undefined) displayed an RP-LC retention time of 842 s.

Turning to `CCC(C)CC(=O)N1CCCN(C2=NS(=O)(=O)C(c3ccc(C)cc3)=C2C)CC1` (centres undefined), the RP-LC retention time was 900 s.

`Cc1ccc(N2C(=O)N(CC(=O)N3CCC(C)CC3)C3CS(=O)(=O)CC32)cc1Cl` (centres undefined) gave an RP-LC retention time of 879 s.

In turn, `O=C1c2ccccc2C(=O)c2nc(-c3ccccc3)c(-c3ccccc3)nc21` displayed an RP-LC retention time of 1030 s.

With `O=C1NC2(CCN(C(=O)Nc3cccc(C(F)(F)F)c3)CC2)N=C1c1ccccc1`, the RP-LC retention time turned out to be 902 s.

`CC(=O)Nc1cc2c(cc1Sc1ccccc1Cl)n(C)c(=O)n2C` yielded an RP-LC retention time of 781 s.

On to `COc1cccc(N2CCN(C(=O)C3CCN(c4cnc5nccnc5c4)CC3)CC2)c1`, for which the RP-LC retention time was found to be 728 s.

On to `CCN1CCN(C(=O)CC2CCN(S(=O)(=O)c3ccc(Cl)s3)CC2)CC1`, for which the RP-LC retention time is 647 s.

The compound `CNC(=O)C1Cc2ccccc2N1C(=O)c1ccccc1SC(F)F` (centres undefined) returned an RP-LC retention time of 715 s.

The compound `CC(=O)Nc1ccc(S(=O)(=O)NCc2nc(C)no2)cc1` returned an RP-LC retention time of 599 s.

`Cc1cc(C)n(-c2ncnc3c2cnn3-c2ccc(F)cc2)n1` registered an RP-LC retention time of 1420 s.

`CCN1C(=O)c2cc(S(=O)(=O)Nc3cccc(C)c3)ccc2Oc2cccnc21` had an RP-LC retention time of 1010 s.

`COC(=O)c1cccc(NS(=O)(=O)c2cn(CC(C)C)c3ncccc23)c1`: the RP-LC retention time was determined as 913 s.

As to `Cc1noc(C2(NC(=O)c3cccc(F)c3)CCCCC2)n1`, the RP-LC retention time came out at 860 s.

The compound `COc1ccc(Cn2c(=O)c3sccc3n(Cc3nc(-c4ccccc4Cl)no3)c2=O)cc1` displayed an RP-LC retention time of 1090 s.

Consider `CCc1noc2nc(CCC(=O)NCCCN3CCN(CC)CC3)nc(N3CCCCC3)c12`, for which the RP-LC retention time is 595 s.

In turn, `Cc1ccc(-c2noc(-c3ccc(N4CCN(c5ccccn5)CC4)nc3)n2)cc1` showed an RP-LC retention time of 805 s.

`CCNc1nc(C)cc(N2CCN(C(=O)Nc3ccc(Cl)cc3)CC2)n1` displayed an RP-LC retention time of 682 s.

Consider `Cn1c(=O)n(C)c2cc(N3CCCCC3)c(NC(=O)c3cccs3)cc21`, for which the RP-LC retention time worked out at 890 s.

`CC1CCN(c2cc(-n3cnc(C(=O)N4CCc5ccccc5C4)c3)ncn2)CC1` yielded an RP-LC retention time of 1060 s.

In the case of `CCCN1CCN(C(=O)CSc2nccnc2Sc2ccccc2)CC1`, the RP-LC retention time came to 662 s.

For the compound `O=S(=O)(c1ccc(F)cc1F)N1CC(COc2ccncc2)C2(CCOCC2)C1` (centres undefined), the RP-LC retention time stood at 613 s.

Compound `CCN1CCN(C(=O)Nc2ccc(C(=O)OC)cc2)c2cccnc21` came in with an RP-LC retention time of 621 s.

On to `O=C1CC(C(F)(F)F)c2c(c(C(=O)O)cn2-c2ccc(F)cc2)N1` (centres undefined), for which the RP-LC retention time is 727 s.

`Cc1c(C(=O)NCc2ccccc2Br)cc(-c2ccccc2)n1C`: the RP-LC retention time stood at 1040 s.

In the case of `Cc1ccc(CNC(=O)C2CCN(C(=O)c3ncn4c3COC(c3ccc(Cl)cc3)C4)CC2)cc1` (centres undefined), the RP-LC retention time was found to be 870 s.

`Cc1c(C)n(CC(O)CNC(C)c2ccccc2)c2ccccc12` (centres undefined) showed an RP-LC retention time of 605 s.

As to `O=C(c1ccc(C(F)(F)F)cc1)N1CCN(c2nc(CN3CCOCC3)cs2)CC1`, the RP-LC retention time was found to be 655 s.

On to `Cc1ccc(NC(=O)NCCn2c(-c3ccncc3)nc3cccnc32)c(Cl)c1`, for which the RP-LC retention time came to 652 s.

Turning to `O=C(NCc1cccs1)c1cccc(N2CCNC(c3ccccc3)C2)n1` (centres undefined), the RP-LC retention time amounted to 579 s.

`COc1ccccc1C(=O)N1CCC2(C1)C(=O)Nc1ccccc12` (centres undefined) gave an RP-LC retention time of 672 s.

For the compound `COc1ccc(C(=O)N2[C@H]3CC[C@@H]2c2cnc(-c4ccc(F)cc4)nc2C3)cn1`, the RP-LC retention time is 892 s.

As for `CCc1ccc(-c2noc(Cn3c(=O)n(-c4ccc(Cl)cc4)c(=O)c4sccc43)n2)cc1`, the RP-LC retention time is 1160 s.

Compound `CCOc1ccccc1CN1CCn2c(nnc2[C@@H]2C[C@@H](O)CN2Cc2cccnc2)C1` returned an RP-LC retention time of 581 s.

`Clc1cccc(-c2ccc(CNCc3ccc4c(c3)OCO4)o2)c1` yielded an RP-LC retention time of 741 s.

For the compound `COc1ccccc1-c1csc(NC(=O)Cc2csc(C)n2)n1`, the RP-LC retention time was 881 s.

In turn, `COC(=O)c1cnc2nc(C)ccc2c1Nc1ccc(OC)cc1` displayed an RP-LC retention time of 647 s.

`CSc1ccc(CNC(=O)Cn2ccc3ccc(N4CCOCC4)nc32)cc1` yielded an RP-LC retention time of 958 s.

The compound `Cc1c(-c2noc(-c3ccc(N(C)C)cc3)n2)nnn1-c1ccc(F)cc1` registered an RP-LC retention time of 1040 s.

For `Cn1cc(C(CNC(=O)Nc2cccc(Cl)c2)c2cccnc2)c2ccccc21` (centres undefined), the RP-LC retention time turned out to be 756 s.

In turn, `CCn1cnc(S(=O)(=O)N2CCC(C(=O)Nc3cccc(-c4ccno4)c3)CC2)c1` yielded an RP-LC retention time of 724 s.

On to `COc1ccc(N2CCN(c3cc(SCC(=O)Nc4ccc(F)c(Cl)c4)ncn3)CC2)cc1`, for which the RP-LC retention time stood at 1060 s.

`O=C(CSc1cccc2cccnc12)NCCc1ccc(Cl)cc1` yielded an RP-LC retention time of 786 s.

As to `O=C(c1ccc(F)c(F)c1)N1CCCC1c1nc(-c2ccccc2Cl)no1` (centres undefined), the RP-LC retention time stood at 1000 s.

As to `Cc1ccc(NC(=O)Cn2cnc(C)c(C)c2=O)cc1`, the RP-LC retention time stood at 675 s.

Take `CC1CCN(S(=O)(=O)c2ccc(-c3nnc(C(=O)NCCC4=CCCCC4)o3)cc2)CC1`: the RP-LC retention time came out at 1190 s.

Turning to `CC(C)n1cc(S(=O)(=O)Nc2cccc(F)c2)c2cccnc21`, the RP-LC retention time is 877 s.

`CCN(CC)c1ncnc2c1cnn2CC(=O)N1CCN(c2ccccn2)CC1` came in with an RP-LC retention time of 549 s.

Turning to `COc1ccc(OCC(=O)Nc2ccc(-c3nc(-c4ccc(OC)cc4)no3)cc2)cc1`, the RP-LC retention time is 1180 s.

`Cc1ccnc(C(=O)Nc2ccc(Nc3ccc(-n4nc(C)c(C)c4C)nn3)cc2)n1` gave an RP-LC retention time of 692 s.

Regarding `CCc1noc(NC(C)=O)c1-c1ccc(C)c(S(=O)(=O)NC(C)CC)c1` (centres undefined), the RP-LC retention time was 787 s.

Take `Cc1ccc(Cn2cc(-c3noc(-c4cccc(N(C)C)c4)n3)nn2)cc1`: the RP-LC retention time is 1100 s.

As for `CC(=O)N1CCC2(CC1)Oc1ccccc1C1CC(c3ccccc3)=NN12` (centres undefined), the RP-LC retention time was found to be 953 s.

Turning to `CCc1nc2ccccc2n1CC(O)COc1cc(C)c(Cl)c(C)c1` (centres undefined), the RP-LC retention time is 770 s.

`O=C(CN1CCN(Cc2ccc(F)cc2)C1=O)NCc1ccc(N2CCCC2)cc1` yielded an RP-LC retention time of 761 s.

In turn, `CC1=NS(=O)(=O)N(Cc2ccccc2)C=C1C(=O)OCc1ccc(C)cc1` had an RP-LC retention time of 1170 s.

`Cc1nc(-c2ccccc2)cc2nn(CC(=O)Nc3ccc(F)c(Cl)c3)c(=O)n12` yielded an RP-LC retention time of 1010 s.

Consider `CCOC(=O)C1CCN(C(=O)C2CCN(c3cncnc3N3CCCCC3)CC2)CC1`, for which the RP-LC retention time amounted to 651 s.

Compound `Cc1cc(C)cc(NS(=O)(=O)c2ccc(-c3nnc(C4CCC4)o3)o2)c1` gave an RP-LC retention time of 996 s.

`Cc1[nH]c(C(=O)N2CCC(CC(=O)NCc3ccc4c(c3)OCO4)CC2)c(C)c1C(=O)OC(C)C`: the RP-LC retention time came to 797 s.

Turning to `Cc1ccc(C)c(-c2cc(C(N)=O)[nH]n2)c1`, the RP-LC retention time is 695 s.

In the case of `Cc1ccccc1CC(=O)NC(C(=O)Nc1nc2ccccc2[nH]1)C(C)C` (centres undefined), the RP-LC retention time worked out at 730 s.

On to `O=C(CN1C(=O)NC2(CCCCC2)C1=O)NCc1ccccc1Cl`, for which the RP-LC retention time is 746 s.

In the case of `Cc1cc(C)cc(Oc2nccn3c(=O)n(CC(=O)Nc4ccccc4Cl)nc23)c1`, the RP-LC retention time was 963 s.

For the compound `COc1cccc(NC(=O)c2cc(C(C)C)n3nccc3n2)c1`, the RP-LC retention time is 1070 s.

Regarding `O=C1C=C(Nc2cccnc2)c2ccccc2C1=O`, the RP-LC retention time is 594 s.

`O=C(c1cc(F)ccc1Cl)N1CCc2nc(-c3ccc(F)cc3)ncc2C1`: the RP-LC retention time amounted to 1020 s.

The compound `CCCn1cc(CCNC(=O)Nc2ccc(C)c(Cl)c2)c2cccnc21` yielded an RP-LC retention time of 884 s.
